Measurements reported in ChEMBL document CHEMBL1201862, “PubChem BioAssay data set” (2004).
The source made the active and inactive calls.

Columns and labels:
[1] = target: T1, Apoptotic protease-activating factor 1 (Homo sapiens, UniProt O14727); assay: SAR analysis of small molecule Activators of Apaf-1 in a Fluorescent assay.; assay type: functional; details: read-out: EC50_Mean;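 further: caspase-3 cleavage of fluorogenic Rh110 DEVD substrate downstream of apoptosome activation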
T1 sequence (O14727 whole entry): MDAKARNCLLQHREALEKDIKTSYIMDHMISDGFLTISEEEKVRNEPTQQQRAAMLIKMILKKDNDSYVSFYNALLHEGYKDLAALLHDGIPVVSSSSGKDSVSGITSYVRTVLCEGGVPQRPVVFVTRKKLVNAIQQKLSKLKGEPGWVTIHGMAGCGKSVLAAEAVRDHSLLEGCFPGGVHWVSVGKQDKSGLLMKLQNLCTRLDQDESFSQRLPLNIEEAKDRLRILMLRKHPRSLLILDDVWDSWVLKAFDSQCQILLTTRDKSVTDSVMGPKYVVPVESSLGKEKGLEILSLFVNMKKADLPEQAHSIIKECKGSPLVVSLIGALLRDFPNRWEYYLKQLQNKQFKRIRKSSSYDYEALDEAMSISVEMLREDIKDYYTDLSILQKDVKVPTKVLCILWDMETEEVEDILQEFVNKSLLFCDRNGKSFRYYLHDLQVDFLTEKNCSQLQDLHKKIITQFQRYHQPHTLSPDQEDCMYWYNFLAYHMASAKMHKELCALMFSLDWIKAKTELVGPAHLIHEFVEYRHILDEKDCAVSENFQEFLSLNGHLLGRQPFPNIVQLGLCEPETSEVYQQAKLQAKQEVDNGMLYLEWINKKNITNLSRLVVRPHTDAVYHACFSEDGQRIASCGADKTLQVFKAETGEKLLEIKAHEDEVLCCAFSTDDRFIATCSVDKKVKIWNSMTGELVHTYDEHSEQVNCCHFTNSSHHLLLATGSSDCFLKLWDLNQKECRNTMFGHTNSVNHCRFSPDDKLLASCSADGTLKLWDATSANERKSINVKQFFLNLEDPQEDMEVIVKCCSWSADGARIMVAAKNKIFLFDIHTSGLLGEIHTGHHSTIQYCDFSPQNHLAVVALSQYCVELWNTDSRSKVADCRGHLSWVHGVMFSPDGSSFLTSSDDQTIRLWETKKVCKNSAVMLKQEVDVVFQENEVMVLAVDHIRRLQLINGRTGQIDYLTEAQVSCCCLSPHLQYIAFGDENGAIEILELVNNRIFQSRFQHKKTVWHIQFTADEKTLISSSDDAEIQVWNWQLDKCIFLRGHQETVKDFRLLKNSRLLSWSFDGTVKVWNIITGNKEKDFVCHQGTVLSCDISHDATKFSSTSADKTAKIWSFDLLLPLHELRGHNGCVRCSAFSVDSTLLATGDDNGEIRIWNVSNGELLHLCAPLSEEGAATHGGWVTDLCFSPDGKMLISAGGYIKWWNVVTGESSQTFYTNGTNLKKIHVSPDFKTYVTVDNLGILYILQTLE

[2] = target: T2, Microphthalmia-associated transcription factor (Homo sapiens, UniProt O75030); assay: reducers of TRPM1 reporter luminescence, concentration series – cell-based, SK-MEL-5, cherry-picked, set 3, MITF inhibitor project, dose response (AID 493073); assay type: functional;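 further: SK-MEL-5 melanoma cells with luciferase driven by the MITF target TRPM1 promoter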
T2 sequence (O75030 whole entry): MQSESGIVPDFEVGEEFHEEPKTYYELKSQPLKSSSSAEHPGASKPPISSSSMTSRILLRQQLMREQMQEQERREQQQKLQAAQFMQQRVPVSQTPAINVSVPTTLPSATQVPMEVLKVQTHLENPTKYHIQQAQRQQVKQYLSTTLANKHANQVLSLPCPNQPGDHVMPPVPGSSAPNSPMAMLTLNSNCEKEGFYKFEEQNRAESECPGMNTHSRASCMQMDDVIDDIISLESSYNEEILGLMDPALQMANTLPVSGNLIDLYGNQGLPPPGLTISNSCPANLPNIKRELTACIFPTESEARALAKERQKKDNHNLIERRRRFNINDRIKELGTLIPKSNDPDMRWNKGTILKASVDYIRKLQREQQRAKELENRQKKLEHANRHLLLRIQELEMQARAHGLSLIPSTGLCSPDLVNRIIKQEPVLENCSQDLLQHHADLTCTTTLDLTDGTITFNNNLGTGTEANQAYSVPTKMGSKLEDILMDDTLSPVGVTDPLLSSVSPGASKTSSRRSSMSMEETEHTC

[3] = fluconazole-exposed Candida albicans growth modulators – fluorescence, retest, confirmation (AID 2467); assay type: functional, cell-based
INS1 = assay: INS-1E survival protection against cytokine death – cell-based, luminescence, retest, dose response (AID 449756); assay type: functional; details: Rattus norvegicus;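 further: cell death triggered by IL-1 beta plus TNF-alpha plus IFN-gamma mixture; protective hits raise ATP signal compared with cytokine alone wells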
[4] = target: T3, DNA repair protein RAD52 homolog (Homo sapiens, UniProt P43351); assay type: functional, biochemical
T3 sequence (P43351 whole entry): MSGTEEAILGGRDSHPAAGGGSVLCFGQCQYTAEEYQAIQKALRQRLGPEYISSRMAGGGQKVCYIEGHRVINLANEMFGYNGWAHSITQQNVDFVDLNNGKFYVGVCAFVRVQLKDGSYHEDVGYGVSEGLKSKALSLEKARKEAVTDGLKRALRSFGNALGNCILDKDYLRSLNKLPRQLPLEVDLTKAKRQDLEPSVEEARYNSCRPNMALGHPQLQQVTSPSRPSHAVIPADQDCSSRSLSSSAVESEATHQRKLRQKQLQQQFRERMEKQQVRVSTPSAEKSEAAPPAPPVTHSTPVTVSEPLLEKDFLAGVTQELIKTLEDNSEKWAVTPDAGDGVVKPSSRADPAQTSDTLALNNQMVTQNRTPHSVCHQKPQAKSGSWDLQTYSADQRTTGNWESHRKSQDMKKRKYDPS

[5] = NIH-3T3 fibroblast cytotoxicity, dose response, cytotoxicity control, cell-based, fluorescence, Alamar Blue, secondary assay (AID 2327); assay type: functional;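 further: NIH-3T3 mouse fibroblasts cultured with fluconazole at 8 µg/mL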
Protein Wnt-3a = Protein Wnt-3a (Mus musculus, UniProt P27467); assay: antagonism of Wnt3a pathway luciferase reporter – Wnt-LIGHT cells, luminescence, selectivity assay for Gli-SUFU antagonist project, dose response (AID 651570); assay type: functional; details: read-out: IC50_Mean;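 further: Wnt-LIGHT reporter cells stimulated with conditioned medium from Wnt3a-producing cells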
[6] = nonselective StAR promoter luciferase inhibitors – cell-based, luminescence, luciferase reporter, counter-screen for LRH-1 inverse agonist project, dose response (AID 651969); assay type: functional
[7] = blockers of CRF-binding protein–CRF-R2 complex – cell-based, uHTS hits, 384-well, dose response (AID 651639); assay type: functional, Homo sapiens; details: read-out: IC50_Mean
[8] = target: T4, Corticotropin-releasing factor receptor 2/Corticotropin-releasing factor-binding protein (Homo sapiens, UniProt P24387+Q13324); assay: Dose Response confirmation of uHTS hits for small molecule antagonists of the CRF-binding protein and CRF-R2 receptor complex.; assay type: functional; details: read-out: IC50_Mean
T4 sequence (Q13324 whole entry): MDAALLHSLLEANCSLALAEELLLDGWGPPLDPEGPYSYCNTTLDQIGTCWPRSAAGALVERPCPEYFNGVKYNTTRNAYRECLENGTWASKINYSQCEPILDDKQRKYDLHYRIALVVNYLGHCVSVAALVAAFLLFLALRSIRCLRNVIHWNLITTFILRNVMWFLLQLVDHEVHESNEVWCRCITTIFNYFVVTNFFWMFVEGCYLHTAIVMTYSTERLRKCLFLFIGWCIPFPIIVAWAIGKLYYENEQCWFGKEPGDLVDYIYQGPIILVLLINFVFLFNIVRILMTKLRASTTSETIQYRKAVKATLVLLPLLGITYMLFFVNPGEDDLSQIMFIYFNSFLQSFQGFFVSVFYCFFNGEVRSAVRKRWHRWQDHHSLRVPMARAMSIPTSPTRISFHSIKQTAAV
T4 sequence (P24387 whole entry): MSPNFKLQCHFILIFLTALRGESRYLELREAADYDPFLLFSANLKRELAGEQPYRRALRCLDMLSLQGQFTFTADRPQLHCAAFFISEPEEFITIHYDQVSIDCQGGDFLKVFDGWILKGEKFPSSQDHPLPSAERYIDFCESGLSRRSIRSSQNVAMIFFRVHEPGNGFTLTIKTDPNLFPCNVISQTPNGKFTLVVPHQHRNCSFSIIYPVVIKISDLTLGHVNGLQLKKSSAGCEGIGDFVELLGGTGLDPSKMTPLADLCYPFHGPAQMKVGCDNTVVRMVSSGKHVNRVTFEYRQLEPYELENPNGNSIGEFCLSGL

[9] = target: T4, Corticotropin-releasing factor receptor 2/Corticotropin-releasing factor-binding protein; assay: activators of CRF receptor 2 with binding protein – uHTS hits, confirmation (AID 602473); assay type: functional; details: read-out: EC50_Mean
[10] = target: Photoreceptor-specific nuclear receptor (Homo sapiens, UniProt Q9Y5X4); assay type: functional, cell-based;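 further: CHO-S cells with Gal4-NCOR and VP16-NR2E3 two-hybrid luciferase reporter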
[11] = target: T5, Short transient receptor potential channel 4 (Mus musculus, UniProt Q9QUQ5); assay: block of DAMGO-driven TRPC4 calcium entry – cell-based, HEK293 TRPC4/mu-opioid, Fluo-4 calcium, dose response (AID 434942); assay type: functional;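 further: potency of inhibitors blocking the TRPC4 calcium response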
T5 sequence (Q9QUQ5 whole entry): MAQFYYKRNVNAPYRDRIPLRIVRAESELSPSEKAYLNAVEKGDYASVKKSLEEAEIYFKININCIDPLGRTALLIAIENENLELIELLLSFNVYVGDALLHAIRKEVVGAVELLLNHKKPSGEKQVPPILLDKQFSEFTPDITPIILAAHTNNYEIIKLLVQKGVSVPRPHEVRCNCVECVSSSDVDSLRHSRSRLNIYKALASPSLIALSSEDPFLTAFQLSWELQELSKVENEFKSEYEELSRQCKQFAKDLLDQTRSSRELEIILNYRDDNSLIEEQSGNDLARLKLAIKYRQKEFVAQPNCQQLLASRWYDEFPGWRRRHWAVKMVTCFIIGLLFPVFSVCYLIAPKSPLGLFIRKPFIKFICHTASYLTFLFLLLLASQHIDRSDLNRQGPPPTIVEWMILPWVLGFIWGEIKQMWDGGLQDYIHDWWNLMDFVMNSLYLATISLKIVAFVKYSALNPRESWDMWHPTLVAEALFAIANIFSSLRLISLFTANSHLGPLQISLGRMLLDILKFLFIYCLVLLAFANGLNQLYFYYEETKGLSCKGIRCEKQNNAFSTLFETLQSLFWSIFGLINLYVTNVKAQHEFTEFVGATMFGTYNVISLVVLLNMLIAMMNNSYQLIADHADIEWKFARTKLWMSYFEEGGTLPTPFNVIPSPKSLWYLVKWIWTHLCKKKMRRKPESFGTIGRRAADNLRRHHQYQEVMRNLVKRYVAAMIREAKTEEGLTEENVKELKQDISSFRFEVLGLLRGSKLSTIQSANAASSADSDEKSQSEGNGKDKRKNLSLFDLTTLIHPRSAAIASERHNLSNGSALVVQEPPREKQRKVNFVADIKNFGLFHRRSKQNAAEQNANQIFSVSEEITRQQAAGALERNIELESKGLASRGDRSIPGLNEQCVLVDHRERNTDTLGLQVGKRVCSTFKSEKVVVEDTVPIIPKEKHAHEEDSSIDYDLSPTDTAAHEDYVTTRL

Sequence of Photoreceptor-specific nuclear receptor (Q9Y5X4 whole entry, the tested form may be a part): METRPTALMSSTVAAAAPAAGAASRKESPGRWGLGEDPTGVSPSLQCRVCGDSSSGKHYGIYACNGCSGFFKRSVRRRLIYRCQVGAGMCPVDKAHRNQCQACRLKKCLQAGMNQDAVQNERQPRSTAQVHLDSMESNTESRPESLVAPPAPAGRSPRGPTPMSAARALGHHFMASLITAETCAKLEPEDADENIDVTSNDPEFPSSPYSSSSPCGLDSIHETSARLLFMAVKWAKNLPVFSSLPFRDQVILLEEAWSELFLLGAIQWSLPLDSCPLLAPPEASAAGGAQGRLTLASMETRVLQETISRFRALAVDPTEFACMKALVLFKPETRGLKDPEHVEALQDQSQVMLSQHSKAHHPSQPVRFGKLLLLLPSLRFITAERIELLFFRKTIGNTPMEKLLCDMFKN
Sequence of Protein Wnt-3a (P27467 whole entry): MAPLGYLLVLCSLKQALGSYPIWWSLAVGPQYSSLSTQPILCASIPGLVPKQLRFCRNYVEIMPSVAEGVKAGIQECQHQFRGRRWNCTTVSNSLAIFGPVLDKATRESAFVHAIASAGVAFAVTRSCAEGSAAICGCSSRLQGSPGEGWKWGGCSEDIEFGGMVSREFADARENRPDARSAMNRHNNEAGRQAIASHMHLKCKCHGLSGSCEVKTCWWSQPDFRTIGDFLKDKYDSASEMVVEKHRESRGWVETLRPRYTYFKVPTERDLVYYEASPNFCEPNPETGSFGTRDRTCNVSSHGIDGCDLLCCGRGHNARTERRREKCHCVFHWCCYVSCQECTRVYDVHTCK

Q: With `O=C(Nc1nc2ccsc2c(=O)s1)c1cccs1` as the compound, how does the EC50 [1] read?
A: > 100 µM (inactive)

Q: What does the source list for `C(#Cc1ccccc1)C[N+]1(CC#Cc2cccc3ccccc23)CCCC1`?
A: AC50 [2]: 6.21 µM (active); EC50 [3]: > 38 µM (not active); AC50 (INS1): 6.44 µM (active); AC50 [4]: 15.2 µM (active); EC50 [5]: > 150 µM (inconclusive); IC50 (Protein Wnt-3a): 5.07 µM (active)

Q: Which IC50 (Protein Wnt-3a) does the source give for `Cc1nnsc1C(=O)NC1CCCc2c1cnn2-c1ccc(F)cc1F` (stereo not given) here?
A: 3.91 µM (active)

Q: For `Cc1cccc(NC(=O)CSc2nc(O)c3c[nH]nc3n2)c1C`, which IC50 [6] is on record?
A: 35.9 µM (inactive)

Q: With `CCOc1ccc(/N=c2\scc(-c3ccc(OC)cc3)n2CCO)cc1` as the compound, how does the IC50 [7] read?
A: > 20 µM (inactive)

Q: And the IC50 [8]?
A: 3.31 µM (active)

Q: What about the EC50 [9] of the same compound?
A: > 53 µM (inactive)

Q: With `Cc1ccc(O)c(NC(=O)C2CC(c3ccc(F)cc3)=NO2)c1` (stereo not given) as the compound, how does the EC50 [1] read?
A: > 100 µM (inactive)

Q: With `CCCCOc1ccc(CONS(=O)(=O)c2ccc(NC(C)=O)cc2)cc1Cl` as the compound, how does the IC50 [10] read?
A: 4.47 µM (active)

Q: Which AC50 (INS1) does the source give for `CCCCCCCCn1c(=O)c(C(=O)OC)c(N)c2ccccc21` here?
A: 5.55 µM (active)

Q: What about the IC50 [10] of the same compound?
A: 6.4 µM (active)

Q: For `Cc1ccc(C(C)(C)C)cc1S(=O)(=O)Nc1nc2ccccc2nc1Cl`, which IC50 [7] is on record?
A: 12.9 µM (active)

Q: What about the EC50 [11] of the same compound?
A: 6.68 µM (active)

Q: What about the IC50 [8] of the same compound?
A: 6.04 µM (active)

Q: What about the EC50 [9] of the same compound?
A: 31.4 µM (active)
